Data taken from ChEMBL document CHEMBL1201862, “PubChem BioAssay data set” (2004).
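Exposure lasted 48 hours, with cells grown in 96-well plates and compounds tested at five concentrations. Abbreviation: GI50, concentration required for 50% inhibition of growth.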 Active and inactive are the calls of the source. Cut-off read from the data, not from the text of the source: active = GI50 up to about 1.1 µM and inactive = higher. Starred links: 1 amine or outer side, 2 acyl side, 3 side chain; linkers in the order of their positions; H or OH if unused. Non-standard residues stand in square brackets, D forms with d. Residues, ends and D or L forms follow the SMILES beside them. X4 = C[C@H](N[*:1])C(=O)C(C)(C)C(=O)[*:2]; Hmpa(2S,3S) = CC[C@H](C)[C@H](O)C(=O)O; NMeY = CN[C@@H](Cc1ccc(O)cc1)C(=O)O; NMeL = CN[C@@H](CC(C)C)C(=O)O; NMeV = CN[C@H](C(=O)O)C(C)C; βAla = NCCC(=O)O

How the values were obtained:
Assay in all cases: NCI anticancer screen, dose series, 48 h
RXF 393 = test system: RXF 393
Hs-578T = test system: Hs-578T
UACC-257 = test system: UACC-257
OVCAR-5 = test system: OVCAR-5
MCF7 = test system: MCF7
NCI-H522 = test system: NCI-H522
Malme-3M = test system: Malme-3M
BT-549 = test system: BT-549
DU-145 = test system: DU-145
NCI-H460 = test system: NCI-H460
SF-268 = test system: SF-268
SN12C = test system: SN12C
RPMI-8226 = test system: RPMI-8226
CCRF-CEM = test system: CCRF-CEM
TK-10 = test system: TK-10
HOP-92 = test system: HOP-92
HL-60 = test system: HL-60
HCC 2998 = test system: HCC 2998

| SMILES | GI50 (RXF 393) | GI50 (Hs-578T) | GI50 (UACC-257) | GI50 (OVCAR-5) | GI50 (MCF7) | GI50 (NCI-H522) | GI50 (Malme-3M) | GI50 (BT-549) | GI50 (DU-145) | GI50 (NCI-H460) | GI50 (SF-268) | GI50 (SN12C) | GI50 (RPMI-8226) | GI50 (CCRF-CEM) | GI50 (TK-10) | GI50 (HOP-92) | GI50 (HL-60) | GI50 (HCC 2998) |
| --- | --- | --- | --- | --- | --- | --- | --- | --- | --- | --- | --- | --- | --- | --- | --- | --- | --- | --- |
| Cc1cc2ncn(CC(=O)O)c2cc1C | > 100 µM (inactive) | > 100 µM (inactive) | > 100 µM (inactive) | > 100 µM (inactive) | > 100 µM (inactive) | > 100 µM (inactive) | > 100 µM (inactive) | > 100 µM (inactive) | > 100 µM (inactive) | > 100 µM (inactive) | > 100 µM (inactive) | > 100 µM (inactive) | > 100 µM (inactive) | > 100 µM (inactive) | > 100 µM (inactive) | > 100 µM (inactive) | > 100 µM (inactive) | – |
| O=C1Nc2ccccc2/C1=N/Nc1ccccc1[N+](=O)[O-] | 35.6 µM (inactive) | 29.2 µM (inactive) | 56.1 µM (inactive) | 38.3 µM (inactive) | > 100 µM (inactive) | 21.8 µM (inactive) | – | 49.1 µM (inactive) | 33.6 µM (inactive) | 19.9 µM (inactive) | 10 µM (inactive) | 40.7 µM (inactive) | 80.7 µM (inactive) | 91.6 µM (inactive) | 69.2 µM (inactive) | – | > 100 µM (inactive) | 44.4 µM (inactive) |
| O=C(O)CCN1CCN(CCC(=O)O)CCN(CCC(=O)O)CC1 | – | > 100 µM (inactive) | > 100 µM (inactive) | > 100 µM (inactive) | 98.2 µM (inactive) | > 100 µM (inactive) | > 100 µM (inactive) | > 100 µM (inactive) | > 100 µM (inactive) | 56.2 µM (inactive) | – | > 100 µM (inactive) | 83.4 µM (inactive) | > 100 µM (inactive) | > 100 µM (inactive) | > 100 µM (inactive) | 25.5 µM (inactive) | > 100 µM (inactive) |
| CC(=O)/C(=C\NC(N)=S)C(=O)Nc1ccccc1C | > 100 µM (inactive) | > 100 µM (inactive) | > 100 µM (inactive) | > 100 µM (inactive) | > 100 µM (inactive) | > 100 µM (inactive) | – | > 100 µM (inactive) | > 100 µM (inactive) | > 100 µM (inactive) | > 100 µM (inactive) | > 100 µM (inactive) | > 100 µM (inactive) | > 100 µM (inactive) | > 100 µM (inactive) | > 100 µM (inactive) | – | > 100 µM (inactive) |
| CCOc1cccc(/C=N/N=C2\C(=O)Nc3c(Cl)cc(Cl)cc32)c1O | > 100 µM (inactive) | > 100 µM (inactive) | > 100 µM (inactive) | > 100 µM (inactive) | 57.5 µM (inactive) | – | > 100 µM (inactive) | 39.6 µM (inactive) | – | 37 µM (inactive) | – | 73.6 µM (inactive) | – | 31.6 µM (inactive) | > 100 µM (inactive) | 75.7 µM (inactive) | 33.4 µM (inactive) | 85.7 µM (inactive) |
| C1C2CC3CC1CC(Nc1nc(NC45CC6CC(CC(C6)C4)C5)nc(NC45CC6CC(CC(C6)C4)C5)n1)(C2)C3 | 39 µM (inactive) | 43.4 µM (inactive) | > 28.8 µM (inactive) | > 92.3 µM (inactive) | 55.1 µM (inactive) | – | > 100 µM (inactive) | > 68.2 µM (inactive) | 42 µM (inactive) | 66.4 µM (inactive) | > 100 µM (inactive) | > 100 µM (inactive) | 24.5 µM (inactive) | > 92.9 µM (inactive) | > 60 µM (inactive) | > 100 µM (inactive) | 39.3 µM (inactive) | 72.1 µM (inactive) |
| CC[C@H](C)[C@@H]1OC(=O)CCNC(=O)[C@@H](C)NC(=O)C(C)(C)C(=O)[C@H](C)NC(=O)[C@H](Cc2ccc(OC)cc2)N(C)C(=O)[C@H](C(C)C)N(C)C(=O)CNC(=O)[C@H](CC(C)C)N(C)C(=O)CNC1=O (cyclo(G[NMeL]G[NMeV][NMeY](Me)[X4][dA][βAla][Hmpa(2S,3S)])) | 0.733 µM (active) | 0.916 µM (active) | 0.218 µM (active) | 0.724 µM (active) | 0.387 µM (active) | 0.0295 µM (active) | 0.217 µM (active) | 2.81 µM (inactive) | 2.71 µM (inactive) | 0.0615 µM (active) | 0.254 µM (active) | 0.367 µM (active) | 0.0726 µM (active) | 0.0568 µM (active) | 1.67 µM (inactive) | 0.665 µM (active) | – | 0.0715 µM (active) |
| O=c1c2cc(-c3ccccc3)cnc2sn1-c1ccc(Oc2ccccc2)cc1 | 19.1 µM (inactive) | – | 67 µM (inactive) | 65.2 µM (inactive) | 52.5 µM (inactive) | 34.4 µM (inactive) | 92.5 µM (inactive) | 23.2 µM (inactive) | 80.9 µM (inactive) | > 100 µM (inactive) | 51.4 µM (inactive) | 31.3 µM (inactive) | 53.1 µM (inactive) | 27.3 µM (inactive) | – | 30.7 µM (inactive) | > 100 µM (inactive) | 73.5 µM (inactive) |
